Source: article PMC9817970 (Cancers, 2022)

Experiments:
Assay in all cases: Kinase panel profiling
Assay type in all cases: biochemical
Conditions in all cases: 10 μM ATP
PBK/TOPK = biological target: T1, PBK/TOPK (Homo sapiens, UniProt Q96KB5)
T1 construct: purchased Reaction Biology Corp
Protocol: (§1) Kinase panel profiling was conducted by Reaction Biology Corp. (San Diego, CA, USA). A single dose (1.0 μM) of 6r was tested against 371 recombinant human kinases in the presence of 10 μM ATP.

FES/FPS = biological target: T2, FES/FPS (Homo sapiens, UniProt P07332)
T2 construct: purchased Reaction Biology Corp
Protocol: as §1

PKCb1 = biological target: T3, PKCb1 (Homo sapiens, UniProt P05771)
T3 construct: purchased Reaction Biology Corp
Protocol: as §1

KDR/VEGFR2 = biological target: T4, KDR/VEGFR2 (Homo sapiens, UniProt P35968)
T4 construct: purchased Reaction Biology Corp
T4 sequence (P35968 20-1356): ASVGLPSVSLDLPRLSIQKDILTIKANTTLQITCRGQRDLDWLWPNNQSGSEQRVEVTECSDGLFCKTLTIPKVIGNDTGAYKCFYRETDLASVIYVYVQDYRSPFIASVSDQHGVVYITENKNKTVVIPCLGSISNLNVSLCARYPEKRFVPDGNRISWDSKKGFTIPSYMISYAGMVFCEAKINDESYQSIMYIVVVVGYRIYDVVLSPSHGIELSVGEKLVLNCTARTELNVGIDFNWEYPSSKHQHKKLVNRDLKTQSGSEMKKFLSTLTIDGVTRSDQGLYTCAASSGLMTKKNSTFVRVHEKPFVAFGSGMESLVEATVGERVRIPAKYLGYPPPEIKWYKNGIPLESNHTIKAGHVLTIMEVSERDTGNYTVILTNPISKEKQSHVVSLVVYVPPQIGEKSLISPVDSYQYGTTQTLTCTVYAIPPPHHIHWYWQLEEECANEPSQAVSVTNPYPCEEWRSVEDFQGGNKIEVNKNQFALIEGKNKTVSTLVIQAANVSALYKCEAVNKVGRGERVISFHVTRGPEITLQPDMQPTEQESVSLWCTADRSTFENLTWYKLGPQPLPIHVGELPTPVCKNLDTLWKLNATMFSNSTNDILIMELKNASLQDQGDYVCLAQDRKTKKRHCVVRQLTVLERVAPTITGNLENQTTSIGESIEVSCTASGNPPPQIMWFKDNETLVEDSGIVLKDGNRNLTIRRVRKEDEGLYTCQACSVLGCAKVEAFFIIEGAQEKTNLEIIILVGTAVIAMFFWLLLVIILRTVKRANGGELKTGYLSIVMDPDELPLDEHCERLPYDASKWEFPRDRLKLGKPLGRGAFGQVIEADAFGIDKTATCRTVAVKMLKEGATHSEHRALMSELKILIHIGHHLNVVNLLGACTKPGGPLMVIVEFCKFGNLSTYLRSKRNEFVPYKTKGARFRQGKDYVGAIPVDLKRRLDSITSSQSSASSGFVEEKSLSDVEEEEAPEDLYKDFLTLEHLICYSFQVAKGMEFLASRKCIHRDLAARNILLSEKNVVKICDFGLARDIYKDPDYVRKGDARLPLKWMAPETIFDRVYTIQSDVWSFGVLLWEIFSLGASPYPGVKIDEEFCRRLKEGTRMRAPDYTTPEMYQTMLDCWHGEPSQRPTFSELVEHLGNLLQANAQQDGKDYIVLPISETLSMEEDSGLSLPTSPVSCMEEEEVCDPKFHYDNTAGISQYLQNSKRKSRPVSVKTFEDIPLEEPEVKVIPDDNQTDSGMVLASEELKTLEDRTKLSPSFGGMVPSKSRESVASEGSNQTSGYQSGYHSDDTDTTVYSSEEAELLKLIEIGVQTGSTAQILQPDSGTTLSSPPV
Protocol: as §1

MASTL = biological target: T5, MASTL (Homo sapiens, UniProt Q96GX5)
T5 construct: purchased Reaction Biology Corp
T5 sequence (Q96GX5 whole entry): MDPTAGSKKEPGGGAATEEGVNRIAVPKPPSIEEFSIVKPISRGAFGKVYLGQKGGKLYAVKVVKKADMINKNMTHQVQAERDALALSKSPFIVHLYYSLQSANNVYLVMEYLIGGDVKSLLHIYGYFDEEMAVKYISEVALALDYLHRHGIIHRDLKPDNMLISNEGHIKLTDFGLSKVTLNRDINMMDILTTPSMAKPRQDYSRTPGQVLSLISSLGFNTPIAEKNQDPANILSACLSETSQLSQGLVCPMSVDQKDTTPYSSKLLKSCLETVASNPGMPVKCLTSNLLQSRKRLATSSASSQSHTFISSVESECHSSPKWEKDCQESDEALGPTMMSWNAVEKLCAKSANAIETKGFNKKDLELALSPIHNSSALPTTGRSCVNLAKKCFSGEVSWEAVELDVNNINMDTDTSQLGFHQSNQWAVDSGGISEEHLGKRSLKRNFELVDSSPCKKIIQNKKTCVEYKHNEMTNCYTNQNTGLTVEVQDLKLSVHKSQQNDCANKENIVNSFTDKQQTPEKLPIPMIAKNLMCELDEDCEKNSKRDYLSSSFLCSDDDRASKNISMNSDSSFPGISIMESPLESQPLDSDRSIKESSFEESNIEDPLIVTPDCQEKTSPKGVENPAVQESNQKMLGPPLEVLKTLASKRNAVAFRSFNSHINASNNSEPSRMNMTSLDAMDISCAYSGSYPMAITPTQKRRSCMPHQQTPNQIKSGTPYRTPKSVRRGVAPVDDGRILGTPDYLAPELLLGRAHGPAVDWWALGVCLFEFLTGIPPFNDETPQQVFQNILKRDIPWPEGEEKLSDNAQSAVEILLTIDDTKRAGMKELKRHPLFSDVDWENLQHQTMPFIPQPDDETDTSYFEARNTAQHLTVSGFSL
Protocol: as §1

AKT3 = biological target: T6, AKT3 (Homo sapiens, UniProt Q9Y243)
T6 construct: purchased Reaction Biology Corp
Protocol: as §1

CK1a1 = biological target: T7, CK1a1 (Homo sapiens, UniProt P48729)
T7 construct: purchased Reaction Biology Corp
Protocol: as §1

CDK4/cyclin D1 = biological target: T8, CDK4/cyclin D1 (Homo sapiens, UniProt P11802)
T8 construct: purchased Reaction Biology Corp
T8 sequence (P11802 whole entry): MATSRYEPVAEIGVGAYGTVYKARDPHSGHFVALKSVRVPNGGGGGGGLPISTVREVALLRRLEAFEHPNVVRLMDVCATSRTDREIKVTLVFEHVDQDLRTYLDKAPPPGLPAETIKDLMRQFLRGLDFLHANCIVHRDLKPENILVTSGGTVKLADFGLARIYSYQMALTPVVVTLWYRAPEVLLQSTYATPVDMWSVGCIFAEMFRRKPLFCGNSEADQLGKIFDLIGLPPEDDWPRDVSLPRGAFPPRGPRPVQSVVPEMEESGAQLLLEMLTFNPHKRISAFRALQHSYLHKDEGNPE
T8 sequence (P24385 whole entry partner): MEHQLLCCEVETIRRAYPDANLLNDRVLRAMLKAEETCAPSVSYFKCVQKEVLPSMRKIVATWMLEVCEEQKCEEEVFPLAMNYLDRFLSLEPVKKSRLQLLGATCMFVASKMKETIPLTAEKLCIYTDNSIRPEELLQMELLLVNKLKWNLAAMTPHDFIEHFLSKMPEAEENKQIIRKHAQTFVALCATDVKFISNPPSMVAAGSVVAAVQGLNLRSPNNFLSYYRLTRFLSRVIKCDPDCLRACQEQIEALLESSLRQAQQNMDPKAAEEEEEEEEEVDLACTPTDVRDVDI
Protocol: as §1

RIPK5 = biological target: T9, RIPK5 (Homo sapiens, UniProt Q6XUX3)
T9 construct: purchased Reaction Biology Corp
Protocol: as §1

LKB1 = biological target: T10, LKB1 (Homo sapiens, UniProt Q15831)
T10 construct: purchased Reaction Biology Corp
Protocol: as §1

FYN = biological target: T11, FYN (Homo sapiens, UniProt P06241)
T11 construct: purchased Reaction Biology Corp
Protocol: as §1

MARK3 = biological target: T12, MARK3 (Homo sapiens, UniProt P27448)
T12 construct: purchased Reaction Biology Corp
T12 sequence (P27448 whole entry): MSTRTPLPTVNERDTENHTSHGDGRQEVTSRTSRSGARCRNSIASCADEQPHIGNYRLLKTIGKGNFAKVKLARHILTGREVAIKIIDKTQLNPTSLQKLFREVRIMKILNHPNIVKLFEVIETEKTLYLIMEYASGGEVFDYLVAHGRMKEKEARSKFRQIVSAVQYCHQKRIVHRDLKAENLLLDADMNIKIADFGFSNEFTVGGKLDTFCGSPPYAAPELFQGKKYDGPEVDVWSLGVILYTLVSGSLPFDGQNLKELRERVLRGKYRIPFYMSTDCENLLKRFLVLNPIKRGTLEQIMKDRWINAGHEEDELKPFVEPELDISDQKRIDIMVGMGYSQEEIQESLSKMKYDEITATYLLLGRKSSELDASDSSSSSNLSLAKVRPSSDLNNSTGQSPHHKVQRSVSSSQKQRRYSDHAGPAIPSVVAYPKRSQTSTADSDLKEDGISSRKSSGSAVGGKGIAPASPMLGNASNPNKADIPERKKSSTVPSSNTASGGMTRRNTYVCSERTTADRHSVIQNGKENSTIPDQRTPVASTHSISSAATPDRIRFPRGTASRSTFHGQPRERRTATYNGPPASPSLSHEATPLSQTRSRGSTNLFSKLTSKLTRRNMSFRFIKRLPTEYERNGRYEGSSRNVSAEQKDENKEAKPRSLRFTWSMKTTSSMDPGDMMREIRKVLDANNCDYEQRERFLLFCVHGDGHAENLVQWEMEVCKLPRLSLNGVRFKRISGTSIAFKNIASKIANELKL
Protocol: as §1

ERN1/IRE1 = biological target: T13, ERN1/IRE1 (Homo sapiens, UniProt O75460)
T13 construct: purchased Reaction Biology Corp
Protocol: as §1

JNK1 = biological target: T14, JNK1 (Homo sapiens, UniProt P45983)
T14 construct: purchased Reaction Biology Corp
Protocol: as §1

CTK/MATK = biological target: T15, CTK/MATK (Homo sapiens, UniProt P42679)
T15 construct: purchased Reaction Biology Corp
Protocol: as §1

CAMK1d = biological target: T16, CAMK1d (Homo sapiens, UniProt Q8IU85)
T16 construct: purchased Reaction Biology Corp
Protocol: as §1

TEC = biological target: T17, TEC (Homo sapiens, UniProt P42680)
T17 construct: purchased Reaction Biology Corp
Protocol: as §1

ALK = biological target: T18, ALK (Homo sapiens, UniProt Q9UM73)
T18 construct: purchased Reaction Biology Corp
Protocol: as §1

SIK1 = biological target: T19, SIK1 (Homo sapiens, UniProt P57059)
T19 construct: purchased Reaction Biology Corp
Protocol: as §1

MKK7 = biological target: T20, MKK7 (Homo sapiens, UniProt O14733)
T20 construct: purchased Reaction Biology Corp
Protocol: as §1

c-MET = biological target: T21, c-MET (Homo sapiens, UniProt P08581)
T21 construct: purchased Reaction Biology Corp
Protocol: as §1

WEE1 = biological target: T22, WEE1 (Homo sapiens, UniProt P30291)
T22 construct: purchased Reaction Biology Corp
Protocol: as §1

EPHB4 = biological target: T23, EPHB4 (Homo sapiens, UniProt P54760)
T23 construct: purchased Reaction Biology Corp
Protocol: as §1

GRK5 = biological target: T24, GRK5 (Homo sapiens, UniProt P34947)
T24 construct: purchased Reaction Biology Corp
Protocol: as §1

TAOK3/JIK = biological target: T25, TAOK3/JIK (Homo sapiens, UniProt Q9H2K8)
T25 construct: purchased Reaction Biology Corp
Protocol: as §1

MAK = biological target: T26, MAK (Homo sapiens, UniProt P20794)
T26 construct: purchased Reaction Biology Corp
Protocol: as §1

TYK1/LTK = biological target: T27, TYK1/LTK (Homo sapiens, UniProt P29376)
T27 construct: purchased Reaction Biology Corp
T27 sequence (P29376 17-864): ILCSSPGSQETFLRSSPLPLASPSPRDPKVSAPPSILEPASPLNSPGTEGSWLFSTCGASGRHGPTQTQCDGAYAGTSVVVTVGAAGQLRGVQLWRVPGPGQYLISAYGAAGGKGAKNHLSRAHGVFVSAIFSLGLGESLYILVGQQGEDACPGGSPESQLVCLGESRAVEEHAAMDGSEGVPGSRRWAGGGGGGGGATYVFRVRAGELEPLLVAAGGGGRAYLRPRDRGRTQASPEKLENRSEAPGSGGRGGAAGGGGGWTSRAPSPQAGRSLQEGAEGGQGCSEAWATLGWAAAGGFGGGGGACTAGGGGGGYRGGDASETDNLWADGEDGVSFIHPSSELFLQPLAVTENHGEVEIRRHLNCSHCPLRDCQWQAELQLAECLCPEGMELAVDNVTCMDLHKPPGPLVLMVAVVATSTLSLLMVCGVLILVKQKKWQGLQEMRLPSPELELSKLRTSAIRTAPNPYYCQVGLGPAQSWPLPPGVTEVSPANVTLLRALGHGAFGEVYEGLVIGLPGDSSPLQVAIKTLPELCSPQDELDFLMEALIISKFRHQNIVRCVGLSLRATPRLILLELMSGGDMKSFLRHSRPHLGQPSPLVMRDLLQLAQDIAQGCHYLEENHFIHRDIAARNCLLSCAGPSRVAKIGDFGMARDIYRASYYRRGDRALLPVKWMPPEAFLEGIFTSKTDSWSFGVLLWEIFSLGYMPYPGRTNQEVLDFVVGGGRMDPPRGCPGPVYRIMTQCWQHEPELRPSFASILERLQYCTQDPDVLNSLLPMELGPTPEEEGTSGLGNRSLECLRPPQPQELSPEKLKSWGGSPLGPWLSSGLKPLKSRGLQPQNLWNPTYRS
Protocol: as §1

JAK3 = biological target: T28, JAK3 (Homo sapiens, UniProt P52333)
T28 construct: purchased Reaction Biology Corp
Protocol: as §1

HIPK1 = biological target: T29, HIPK1 (Homo sapiens, UniProt Q86Z02)
T29 construct: purchased Reaction Biology Corp
Protocol: as §1

WNK3 = biological target: T30, WNK3 (Homo sapiens, UniProt Q9BYP7)
T30 construct: purchased Reaction Biology Corp
Protocol: as §1

JAK2 = biological target: T31, JAK2 (Homo sapiens, UniProt O60674)
T31 construct: purchased Reaction Biology Corp
Protocol: as §1

MNK1 = biological target: T32, MNK1 (Homo sapiens, UniProt Q9BUB5)
T32 construct: purchased Reaction Biology Corp
Protocol: as §1

TNK1 = biological target: T33, TNK1 (Homo sapiens, UniProt Q13470)
T33 construct: purchased Reaction Biology Corp
Protocol: as §1

PKCiota = biological target: T34, PKCiota (Homo sapiens, UniProt P41743)
T34 construct: purchased Reaction Biology Corp
Protocol: as §1

PRKX = biological target: T35, PRKX (Homo sapiens, UniProt P51817)
T35 construct: purchased Reaction Biology Corp
Protocol: as §1

CDK1/cyclin E = biological target: T36, CDK1/cyclin E (Homo sapiens, UniProt P06493)
T36 construct: purchased Reaction Biology Corp
Protocol: as §1

CAMKK2 = biological target: T37, CAMKK2 (Homo sapiens, UniProt Q96RR4)
T37 construct: purchased Reaction Biology Corp
Protocol: as §1

VRK2 = biological target: T38, VRK2 (Homo sapiens, UniProt Q86Y07)
T38 construct: purchased Reaction Biology Corp
Protocol: as §1

BLK = biological target: T39, BLK (Homo sapiens, UniProt P51451)
T39 construct: purchased Reaction Biology Corp
Protocol: as §1

CK1epsilon = biological target: T40, CK1epsilon (Homo sapiens, UniProt P49674)
T40 construct: purchased Reaction Biology Corp
Protocol: as §1

CDK2/CYCLIN E = biological target: T41, CDK2/CYCLIN E (Homo sapiens, UniProt P24941)
T41 construct: purchased Reaction Biology Corp
Protocol: as §1

DAPK1 = biological target: T42, DAPK1 (Homo sapiens, UniProt P53355)
T42 construct: purchased Reaction Biology Corp
Protocol: as §1

CDK4/cyclin D3 = biological target: T43, CDK4/cyclin D3 (Homo sapiens, UniProt P11802)
T43 construct: purchased Reaction Biology Corp
T43 sequence (P11802 whole entry): as the sequence (P11802 whole entry) above
T43 sequence (P30281 whole entry partner): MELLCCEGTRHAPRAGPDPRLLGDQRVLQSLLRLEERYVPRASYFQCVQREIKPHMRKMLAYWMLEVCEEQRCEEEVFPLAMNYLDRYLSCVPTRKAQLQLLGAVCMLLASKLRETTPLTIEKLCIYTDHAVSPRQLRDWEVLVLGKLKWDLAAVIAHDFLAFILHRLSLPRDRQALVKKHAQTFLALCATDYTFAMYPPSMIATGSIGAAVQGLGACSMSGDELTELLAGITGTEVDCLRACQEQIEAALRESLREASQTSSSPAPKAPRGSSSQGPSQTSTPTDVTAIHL
Protocol: as §1

## Cc1ccc(NC(=O)c2ccc(CN3CCN(C)CC3)c(C(F)(F)F)c2)cc1-c1cnc2sc(N)nc2c1 [6r]
PBK/TOPK
  inhibition at 1 µM: 4.3%
FES/FPS
  inhibition at 1 µM: 39.7%
PKCb1
  inhibition at 1 µM: 10.5%
KDR/VEGFR2
  inhibition at 1 µM: 77.8%
MASTL
  inhibition at 1 µM: 1.3%
AKT3
  inhibition at 1 µM: 13.6%
CK1a1
  inhibition at 1 µM: 13.7%
CDK4/cyclin D1
  inhibition at 1 µM: 4.7%
RIPK5
  inhibition at 1 µM: 4.4%
LKB1
  inhibition at 1 µM: 0%
FYN
  inhibition at 1 µM: 89%
MARK3
  inhibition at 1 µM: 0%
ERN1/IRE1
  inhibition at 1 µM: 8%
JNK1
  inhibition at 1 µM: 14%
CTK/MATK
  inhibition at 1 µM: 8.1%
CAMK1d
  inhibition at 1 µM: 14.3%
TEC
  inhibition at 1 µM: 1.6%
ALK
  inhibition at 1 µM: 0%
SIK1
  inhibition at 1 µM: 1.1%
MKK7
  inhibition at 1 µM: 7.3%
c-MET
  inhibition at 1 µM: 2.7%
WEE1
  inhibition at 1 µM: 0%
EPHB4
  inhibition at 1 µM: 27.3%
GRK5
  inhibition at 1 µM: 5.8%
TAOK3/JIK
  inhibition at 1 µM: 17.8%
MAK
  inhibition at 1 µM: 15%
TYK1/LTK
  inhibition at 1 µM: 1%
JAK3
  inhibition at 1 µM: 7.8%
HIPK1
  inhibition at 1 µM: 5.2%
WNK3
  inhibition at 1 µM: 7.1%
JAK2
  inhibition at 1 µM: 2%
MNK1
  inhibition at 1 µM: 0%
TNK1
  inhibition at 1 µM: 36.2%
PKCiota
  inhibition at 1 µM: 8.6%
PRKX
  inhibition at 1 µM: 12.8%
CDK1/cyclin E
  inhibition at 1 µM: 0%
CAMKK2
  inhibition at 1 µM: 20.5%
VRK2
  inhibition at 1 µM: 20.1%
BLK
  inhibition at 1 µM: 84.8%
CK1epsilon
  inhibition at 1 µM: 24.2%
CDK2/CYCLIN E
  inhibition at 1 µM: 0%
DAPK1
  inhibition at 1 µM: 10.1%
CDK4/cyclin D3
  inhibition at 1 µM: 9.8%
